Assays:
mouse CLP model = settings: WO 2018/154015, cited from earlier work
[1] = test system: CLP-induced polymicrobial sepsis; assay: Chronic model of CLP: survival rate; assay type: in vivo, mouse; settings: 30 mg/kg s.c. 2 h after CLP induction and once daily from day 1 to day 6; 10 mice per group
Experimental: Two models were performed: • A cute model of CLP lasting 24 h to measure vascular hyper-permeability in lung, liver, kidney and heart tissue. The vascular hyper-permeability was followed by the extravasation of Evans blue injected intravenously and diffused and accumulated into the tissue. The vascular hyper-permeability was expressed as μg of Evans blue in 100 mg of dry tissue. • Chronic model of CLP lasting 8 days. CLP is performed on day 0 and the survival rate is followed for 8 consecutive days
On day 0, mice were anesthetized with ketamine (80 mg kg^−1, i.p.) and xylazine (10 mg kg^−1, i.p.). A 1-1.5 cm abdominal midline incision was made, and the caecum was located and tightly ligated at half the distance between distal pole and the base of the caecum with 4-0 silk suture (mild grade). The caecum was punctured through-and-through once with a 21-gauge needle after medium ligation. A small amount of stool was extruded to ensure that the wounds were patent. Then the cecum was replaced in its original position within the abdomen, which was closed with sutures in layers. For negative control animals, a sham surgery was performed: sham-operated animals underwent identical laparotomy but without cecal ligation or puncture. The animals were resuscitated immediately after surgery with 1 mL subcutaneous normal saline and returned to their cages. […]

pig sepsis model = settings: intravenous bolus injection; cited from earlier work

NCCCC[C@H](NC(=O)[C@@H](Cc1cc(Br)c(O)c(Br)c1)NC(=O)N1CCC(N2Cc3ccccc3NC2=O)CC1)C(=O)N1CCN(c2ccncc2)CC1 [olcegepant]
mice rescued at day 4 (mouse CLP model; 100 mg/kg subcutaneous twice daily, mouse CLP model): 20% | mice rescued (mouse CLP model; subcutaneous bolus injection, mouse sepsis model): 2 out of 10 | survival rate at day 8 [1]: 20% | survival improvement (pig sepsis model): did not show any survival improvement

Source: patent publication US20260174762A1, “OLCEGEPANT FOR TREATING SEPSIS” (Boehringer Ingelheim International GmbH, priority 2022, published 2026)
